# According to patent publication EP2823816A1, “Inhibitors of Neuropilin and use thereof for the treatment of Neuropilin-related diseases” (Tragex Pharma, priority 2013, dated 2015):
# Columns and labels:
# Experiment in all cases: Proliferation assay in shRNA-transfected cells
# Assay type in all cases: cell-based
# [1] = test system: MDA-MB-231 + shRNA directed to NRP2; details: Homo sapiens; inhibition of proliferation; clone MDA-MB-231 + shRNA directed to NRP2
# Excerpt: (§1) The cell proliferation WST-1 assay is a colorimetric assay for the quantification of cell proliferation and viability, based on the enzymatic cleavage of the tetrazolium salt WST-1 added to the culture medium, to a water soluble colored formazan dye, detected by absorbance at 450 nm, by mitochondrial succinate-tetrazoliumreductase in viable cells. An augmentation in enzyme activity will then lead to an increase in the amount of formazan dye formed, which directly correlates to the number of metabolically active cells in the culture.
# (§2) After an incubation period of 72 h, at day 4, were prepared the 19 mL medium with reagent WST-1 1mL ([…]). The medium was removed from the 96 microplate and 200 µL of solution WST-1/medium were added for each well. The cells were incubated at 37°C in a humidified atmosphere of 5% CO2 for 1h30 and the absorbance at 450-655 nm was measured by Microplate Manager 5.2 (Bio-Rad).
# (§3) The effect of compound 1 of the invention on cell proliferation was tested according to the proliferation assay hereinabove described, in MDA-MB-231 cancer cells transfected with shRNA directed to NRP1 or NRP2 or with control shRNA.
# [2] = test system: MDA-MB-231 + shRNA directed to NRP1; details: Homo sapiens; inhibition of proliferation; clone MDA-MB-231 + shRNA directed to NRP1
# Excerpt: as §1, §2, §3
# [3] = test system: MDA-MB-231 + control shRNA; details: Homo sapiens; inhibition of proliferation; clone MDA-MB-231 + control shRNA
# Excerpt: as §1, §2, §3
smiles,measurement,setting,value
"CCOc1ccccc1NC(=O)c1ccc(C)c(S(=O)(=O)Nc2ccc(C)cc2)c1 [Compound 1, N-(2-ethoxyphenyl)-4-methyl-3-(N-(p-tolyl)sulfamoyl)benzamide]",IC50,[1],10 ± 0.05 µM
same,IC50,[2],9 ± 0.08 µM
same,IC50,[3],0.8 ± 0.05 µM
